Results taken from patent US10905757B2, “Cross-reactive T cell epitopes of HIV, SIV, and FIV for vaccines in humans and cats” (priority 2012, dated 2021).
Entries after “also recorded” stand apart in the source; their conditions may differ. Ends that are not written are not given here.

Experiments:
[1] = tested on: CD4+ T cells from HIV+ subjects; experiment: Intracellular cytotoxin staining (ICS), CD4+ T cells from HIV+ subjects; format: cell-based, human; set-up: key to CD4^+ T-cell cytotoxins (4C): positive (+); negative (−) response; inhibitory (↓); not done (n); settings: for cytotoxin expression in CD4+ T cells (in words): ST/ART− subjects; for CD4^+ T-cell cytotoxins (4C): HIV^+ subjects compared to HIV^− control group
Procedure: (§1) Briefly, 1×10^6PBMCs (freshly isolated) are stimulated with 20 μg of peptides for 6 hours in a total volume of 200 μL in a 96-well plate in presence of Golgi transport inhibitor (37° C., 5% CO2). The cells are processed as previously described (Horton et al. (2007)). Cells were stained with the LIVE/DEAD® fixable yellow dye (Invitrogen, Eugene, Oreg.). The monoclonal antibodies fluorochome-conjugated to human cytokines used are: APC-H7 to CD3 (clone SK7); BD Horizon V450 to CD4 (clone RPA-T4); Qdot to CD8 (clone 3B5); PE-cy7 to IFN-γ (clone 4S.B3); APC to IL-2 (clone MQ1-17H12) PerCP to perforin (clone B-D48); Alexa F1.700 to granzyme-B (clone GB11) and PE to granzyme-A (clone CB9). The flow cytometry data is collected using BD LSRII and analyzed with the FACS DIVA software.
(§2) The ICS analysis (Horton et al. (2007)) involved stimulating 0.5-1.0×10^6 freshly isolated PBMC for 6 h with the same peptide stimulant and culture conditions as the proliferation analysis in the presence of 1 μg/mL of Golgi transport inhibitor and monensin followed by labeling with LIVE/DEAD fixable yellow dye and then treatment with anti-CD16/CD32 antibody and T-cell phenotypic antibodies. The cells were subsequently fixed and permeabilized with Cytofix/Cytoperm solution (BD Biosciences) before reaction with anti-cytotoxin antibodies. The antibodies consisted of anti-CD3 APC-H7, anti-CD4 BD Horizon V450, and anti-CD8 FITC followed by anti-GrzB Alexa 700 and anti-GrzA PE (all from BD Biosciences), and anti-perforin PerCP (Abcam, Boston, Mass.).
(§3) In both analyses, 1.0-2.0×10^4 cells were fixed in phosphate-buffered saline (PBS) containing 2% paraformaldehyde and analyzed on BD LSRII using […] Software (BD Biosciences), with a positive threshold of 3% CFSE^low for CFSE-proliferation and 1% T cells expressing cytotoxin for ICS. The final value for each subject was derived after subtraction of the subject's medium control and the average value of peptide-stimulated cells from uninfected control subjects.
(§4) Flow cytometry (FACS) for measuring CFSE-proliferation and intracellular cytokine staining (ICS). Carboxyfluorescein diacetate succinimide ester (CFSE)-proliferation analysis was performed according to the manufacturer's protocol (Invitrogen) and processed as previously described (Lichterfeld et al. 2004) using the following modification: 2.5-5.0×10^5 CFSE-labeled PBMC stimulated for 4-5 days (37° C., 5% CO2) with 15-30 μg of peptides in culture media (AIM V medium, 25 μg/mL gentamycin, and 10% heat-inactivated fetal bovine serum). The ICS analysis was performed as previously described (Horton et al. 2007; Pattacini et al. 2012).
(§5) The antibodies used for the proliferation analysis consisted of anti-CD4 allophycocyanin (APC) anti-CD3 APC-H7, and anti-CD8 Pacific Blue, and those for ICS were anti-CD3 APC-H7, anti-CD4 BD Horizon V450, anti-CD8 FITC, anti-granzyme B (GrzB) Alexa 700, anti-granzyme A (GrzA) PE (BD Biosciences, Cat #555349, 560176, 558207, 560345, 555366, 560213, 558904), and anti-perforin PerCP (Abcam, Cat #ab86319). Both analyses were performed with BD LSRII and […]™ Software (BD Biosciences), using a positive threshold of >1% CFSE^low for CFSE-proliferation except for ICS studies with threshold of >0.1% T cells expressing cytotoxin. The final value for each subject was derived after subtracting the result of each HIV^+ subject with the media control followed by subtraction with the average response of the media-control subtracted HIV^− subjects.

[2] = tested on: CD8+ T cells from HIV+ subjects; experiment: Intracellular cytotoxin staining (ICS: perforin, GrzA, GrzB, CD107a), CD8+ T cells from HIV+ subjects; format: cell-based, human; set-up: key to CD8^+ T-cell cytotoxins (8C): positive (+); negative (−) response; inhibitory (↓); not done (n); settings: for HIV+ subjects whose CD8+ T cells responded with one or more cytotoxins: five HIV+ subjects, individual 13-15mer peptides; for CD8^+ T-cell cytotoxins (8C): HIV^+ subjects compared to HIV^− control group
Procedure: as §1, §2, §3, §4, §5

[3] = tested on: T cells from HIV− subjects; experiment: CFSE-proliferation, CD8+ / CD4+ T cells from HIV− control subjects; format: cell-based, human
Procedure: Flow cytometry (FACS) for carboxyfluoresein diacetate succinimide ester (CFSE)-proliferation and intracellular cytotoxin staining (ICS). The CFSE-proliferation analysis was performed on PBMC according to the manufacturer's protocol (Invitrogen, Carlsbad, Calif.) and processed as previously described (Lichterfeld et al. (2004)). Modifications consisted of using 2.0-5.0×10^5 CFSE-labeled cells stimulated for 5 days (37° C., 5% CO^2) with 30 μg/well of total peptides in a pool (15 μg/well for individual peptide, Table 10) or 5 μg/mL PHA in AIM V medium containing 25 μg/mL of gentamycin and 10% heat-inactivated human serum. Subsequently these cells were harvested and labeled with the LIVE/DEAD fixable yellow dye (Invitrogen) and then treated 5 min with anti-CD16/CD32 antibody (Biolegend, San Diego, Calif.) for blocking non-specific binding before phenotype-specific antibodies. The following antibodies were used for the CFSE-proliferation analysis: anti-CD4 APC, anti-CD3 APC-H7, and anti-CD8 Pacific Blue (BD Biosciences, San Jose, Calif.).
as §3, §4, §5

[4] = tested on: CD4+ or CD8+ T cells from HIV+ subjects; experiment: Intracellular cytotoxin staining (ICS), CD4+ or CD8+ T cells from HIV+ responders; format: cell-based, human; settings: for Cytotoxins: responders to Fp9 or Fp14 peptide pools; for cytotoxin and CD107a expression in CD4+ and CD8+ T cells (in words): p24 peptides
Procedure: Briefly, 1×10^6PBMCs (freshly isolated) are stimulated with 20 μg of peptides for 6 hours in a total volume of 200 μL in a 96-well plate in presence of Golgi transport inhibitor (37° C., 5% CO2). […] Cells were stained with the LIVE/DEAD® fixable yellow dye (Invitrogen, Eugene, Oreg.). […] The flow cytometry data is collected using BD LSRII and analyzed with the FACS DIVA software.
The cells were subsequently fixed and permeabilized with Cytofix/Cytoperm solution (BD Biosciences) before reaction with anti-cytotoxin antibodies. The antibodies consisted of anti-CD3 APC-H7, anti-CD4 BD Horizon V450, and anti-CD8 FITC followed by anti-GrzB Alexa 700 and anti-GrzA PE (all from BD Biosciences), and anti-perforin PerCP (Abcam, Boston, Mass.).
as §3
Flow cytometry (FACS) for measuring CFSE-proliferation and intracellular cytokine staining (ICS).
Both analyses were performed with BD LSRII and […]™ Software (BD Biosciences), using a positive threshold of >1% CFSE^low for CFSE-proliferation except for ICS studies with threshold of >0.1% T cells expressing cytotoxin.

[5] = tested on: FIV infection of naïve cat PBMC; experiment: In vitro FIV enhancing/inhibitory (E/I) assay in PBMC from naïve SPF cats (RT titer); format: cell-based; settings: for effect on in vitro FIV infection: PBMC from naïve cats
Procedure: FIG. 35. FIV-enhancing versus inhibitory epitopes on peptides and MAPs used in pilot MAP Study. […] Abbreviation: MAP1 plus MAP2 mix (MAP1+2).
FIG. 36A and 36B. FIV/HIV-1 enhancing versus inhibitory epitopes. […] Four epitope peptides were tested in an in vivo efficacy study with prototype vaccine prime and MAP boosts against pathogenic FIV challenge (see MAP section).
To test the possibility that Fp4-3 peptide may be enhancing FIV infection, we performed an in vitro FIV enhancing/inhibitory analysis with all MAP peptides and immunogens. […]. Since MAP2 consisted of peptides FRT3-3 and FRT3-4 with a natural overlap (FIG. 34), such overlap may have blocked the enhancing activity of peptide FRT3-3 while allowing the inhibitory activity of peptide FRT3-4. […] Moreover, none of the MAP vaccinated cats had early detection or enhancement in viral load compared to the control cats. Perhaps, the strong immunity generated by the MAP2 has blocked the enhancing activity of the MAP1 when boosted together (Group 1, Table 3). To test this possibility, in vitro study is currently undergoing to evaluate whether MAP2 can block FIV enhancing activity of MAP1. Furthermore, more cats will be vaccinated with MAP 1b and MAP2 to determine the levels of cytotoxins generated to peptides Fp14-1, FRT3-3 and FRT3-4. Since these peptides have induced CTL-associated cytotoxin expression in T cells from HIV^+ subjects (FIGS. 31A-31B; FIG. 5 in (Sanou et al. 2013)), these EC peptides may also mediate their in vivo effects by inducing anti-FIV specific CTL activity.
However, only peptide Fp4-3 correlated with the in vitro enhancement induced by MAP1. Since the in vitro E/I assay uses PBMC from naïve specific pathogen free (SPF) cats, it is unlikely that the in vitro stimulation of anti-FIV CTLs occurred in the culture and eliminated the infected cells. More likely, these enhancing or inhibitory peptides induced cytokines (enhancement: IFNγ, TNFα, GM-CSF; inhibition: IFNα, IL10), chemokines (inhibition: MIP1α, MIP1β, SDF-1, RANTES), or cellular restriction factors (inhibition: Trim5α, APOBEC3g) that either enhanced or inhibited FIV/HIV-1 infection. […] IFNγ is produced during inflammatory responses to HIV-1 infection (Ipp and Zemlin 2013). Thus, high levels of antiviral cellular immune responses are needed while minimizing both non-specific and viral-specific activation of CD4^+ T cells which can enhance viral replication (Lane 2010). Removal of the enhancing epitopes on FIV and HIV-1 immunogens will be critical to produce an effective HIV-1 vaccine. To accomplish this goal, we will design a vaccine based on antiviral epitopes directed at inducing viral-specific CD4^+ CTLs, CD8^+ CTLs and polyfunctional T cells, and identifying viral enhancing epitopes to remove from vaccine candidates.

Substance	cytotoxin expression in CD4+ T cells (in words) [1]	cytotoxin expression / CTL-associated activity in CD8+ T cells (in words) [2]	T-cell proliferation in HIV− subjects (in words) [3]	Cytotoxins [4]	other results
ARMQCRAWY [Fp9-3d]	very little cytotoxin expression	more cytotoxins	not	Moderate Cytotoxins (only CD8)	–
DQEQNTAEVKLYLK [MAP1b, palmitated multiple antigenic peptide with FIV p24-peptide Fp14-1 alone]	–	–	–	–	effect on in vitro FIV infection [5]: no significant in vitro effect
FAPARMQCRAWYLEA [Fp9-3]	very little cytotoxin expression	more cytotoxins; also recorded: highest frequency of responders	proliferated	High Cytotoxins (The cytotoxin result is considered high when four or five subjects express one or more cytotoxins in the CD8^+ T cells)	HIV+ subjects whose CD8+ T cells responded with one or more cytotoxins [2]: up to four
KKKSGKWRLLIDFRVLNKL [MAP2]	–	–	–	–	effect on in vitro FIV infection [5]: significantly inhibited; also recorded: inhibition
RAEQASQEVKNWMTE [Hp15-1]	–	robust cytotoxin levels and responder frequencies	not	High Cytotoxins (The cytotoxin result is considered high when four or five subjects express one or more cytotoxins in the CD8^+ T cells)	CD4^+ T-cell cytotoxins (4C) [1]: +; CD8^+ T-cell cytotoxins (8C) [2]: +; HIV+ subjects whose CD8+ T cells responded with one or more cytotoxins [2]: five
RMQCRAWYL [Fp9-3c]	very little cytotoxin expression	–	not	Extremely Low Cytotoxins	–
VKNWMTETL [Hp15-2/3a]	–	–	did not stimulate	–	cytotoxin and CD107a expression in CD4+ and CD8+ T cells (in words) [4]: high cytotoxin and CD107a expression; also recorded: induced expression in both
VKNWMTETLLVQNAN [Hp15-3]	–	–	inducers	–	CD4^+ T-cell cytotoxins (4C) [1]: +; CD8^+ T-cell cytotoxins (8C) [2]: +; cytotoxin and CD107a expression in CD4+ and CD8+ T cells (in words) [4]: high levels and frequency of cytotoxin responses
concanavalin A [ConA, reference compound]	–	–	–	–	average RT titer ([5]; FIV-enhancing mitogen control, 1:10000 dilution): 54,634 cpm/mL
